Source: PubChem BioAssay (NCI)
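Five compound concentrations were applied to cells in 96-well plates for 48 hours; endpoints were derived by simple linear interpolation of the resulting dose-response curve. TGI is the concentration that stops growth completely.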

Experiments:
Assay in all cases: growth of human tumour cells (NCI), 48 h
[1] = test system: MDA-N
[2] = test system: NCI-H460 lung
[3] = test system: HS 578T breast
[4] = test system: UACC-257 melanoma
[5] = test system: OVCAR-4 ovarian
[6] = test system: HL-60(TB) leukemia
[7] = test system: SNB-19 CNS
[8] = test system: MOLT-4 leukemia
[9] = test system: NCI/ADR-RES ovarian
[10] = test system: RPMI-8226 leukemia
[11] = test system: MDA-MB-231 breast
[12] = test system: 786-0 renal
[13] = test system: NCI-H23 lung
[14] = test system: ACHN renal
[15] = test system: LOX IMVI melanoma
[16] = test system: HCC-2998 colon
[17] = test system: SF-268 CNS
[18] = test system: EKVX NSCLC
[19] = test system: MALME-3M melanoma
[20] = test system: OVCAR-5 ovarian
[21] = test system: PC-3 prostate
[22] = test system: SK-MEL-5 melanoma
[23] = test system: SK-OV-3 ovarian
[24] = test system: COLO 205 colon
[25] = test system: NCI-H226 lung
[26] = test system: DU-145 prostate
[27] = test system: SN12C renal
[28] = test system: HCT-116 colon
[29] = test system: SK-MEL-28 melanoma
[30] = test system: SF-295 CNS
[31] = test system: IGROV1 ovarian
[32] = test system: SF-539 CNS
[33] = test system: TK-10 renal
[34] = test system: A498 renal
[35] = test system: SNB-75 CNS
[36] = test system: HOP-92 NSCLC
[37] = test system: HT29 colon
[38] = test system: CCRF-CEM leukemia
[39] = test system: HOP-62 NSCLC
[40] = test system: NCI-H522 lung
[41] = test system: UO-31 renal
[42] = test system: A549 NSCLC
[43] = test system: SW-620 colon
[44] = test system: SR leukemia
[45] = test system: K-562 leukemia
[46] = test system: CAKI-1 renal
[47] = test system: T-47D breast
[48] = test system: RXF 393 renal
[49] = test system: UACC-62 melanoma
[50] = test system: M14 melanoma
[51] = test system: KM12 colon
[52] = test system: OVCAR-3 ovarian
[53] = test system: MCF7 breast
[54] = test system: MDA-MB-435
[55] = test system: OVCAR-8 ovarian
[56] = test system: U251 CNS
[57] = test system: HCT-15 colon
[58] = test system: SK-MEL-2 melanoma
[59] = test system: BT-549 breast

`CC(CO)CCNc1ncnc2c1ncn2CCC(=O)OC(C)(C)C` (stereo not drawn) gave a TGI [1] of over 100 µM, a TGI [2] of over 100 µM and a TGI [3] of over 100 µM. The TGI [4] was over 100 µM, the TGI [5] was over 100 µM and the TGI [6] was over 100 µM. The TGI [7] was over 100 µM, the TGI [8] was over 100 µM and the TGI [9] was over 100 µM. It also gave a TGI [10] of over 100 µM, a TGI [11] of over 100 µM and a TGI [12] of over 100 µM. It also gave a TGI [13] of over 100 µM, a TGI [14] of over 100 µM and a TGI [15] of over 100 µM. For the same molecule, the TGI [16] was over 100 µM, the TGI [17] was over 100 µM and the TGI [18] was over 100 µM. The TGI [19] was over 100 µM, the TGI [20] was over 100 µM and the TGI [21] was over 100 µM. The TGI [22] was over 100 µM, the TGI [23] was over 100 µM and the TGI [24] was over 100 µM. For the same molecule, the TGI [25] was over 100 µM, the TGI [26] was over 100 µM and the TGI [27] was over 100 µM. It also gave a TGI [28] of over 100 µM, a TGI [29] of over 100 µM and a TGI [30] of over 100 µM. The TGI [31] was over 100 µM, the TGI [32] was over 100 µM and the TGI [33] was over 100 µM. For the same molecule, the TGI [34] was over 100 µM, the TGI [35] was over 100 µM and the TGI [36] was over 100 µM. For the same molecule, the TGI [37] was over 100 µM, the TGI [38] was over 100 µM and the TGI [39] was over 100 µM. For the same molecule, the TGI [40] was over 100 µM, the TGI [41] was over 100 µM and the TGI [42] was over 100 µM. It also gave a TGI [43] of over 100 µM, a TGI [44] of over 100 µM and a TGI [45] of over 100 µM. For the same molecule, the TGI [46] was over 100 µM, the TGI [47] was over 100 µM and the TGI [48] was over 100 µM. For the same molecule, the TGI [49] was over 100 µM, the TGI [50] was over 100 µM and the TGI [51] was over 100 µM. It also gave a TGI [52] of over 100 µM, a TGI [53] of over 100 µM and a TGI [54] of over 100 µM. The TGI [55] was over 100 µM.
In the case of `Cc1c(C)n(-c2ccccc2)c2nc(S(C)(=O)=O)nc(S(C)(=O)=O)c12`, the TGI [1] is reported as 3.43 µM, the TGI [2] is reported as 37.1 µM and the TGI [3] is reported as over 85.5 µM. The TGI [4] was 3.16 µM, the TGI [5] was 3.13 µM and the TGI [6] was 3.35 µM. It also gave a TGI [7] of 25.6 µM, a TGI [8] of 2.49 µM and a TGI [9] of 59.9 µM. For the same molecule, the TGI [10] was 4.94 µM, the TGI [11] was 19.4 µM and the TGI [12] was 2.55 µM. For the same molecule, the TGI [13] was 23.3 µM, the TGI [56] was 11.2 µM and the TGI [14] was 2.91 µM. The TGI [15] was 3.43 µM, the TGI [16] was 41.2 µM and the TGI [57] was 3.31 µM. It also gave a TGI [17] of 31.1 µM, a TGI [18] of 11.7 µM and a TGI [19] of 2.92 µM. It also gave a TGI [20] of 3.63 µM, a TGI [21] of 10.2 µM and a TGI [22] of 27.1 µM. It also gave a TGI [23] of 34.2 µM, a TGI [24] of 3.29 µM and a TGI [25] of 47.4 µM. It also gave a TGI [26] of 27.7 µM, a TGI [27] of 33.8 µM and a TGI [28] of 2.98 µM. For the same molecule, the TGI [29] was 6.73 µM, the TGI [30] was 31.1 µM and the TGI [31] was 9.24 µM. For the same molecule, the TGI [32] was 27 µM, the TGI [33] was 3.55 µM and the TGI [34] was 28.9 µM. It also gave a TGI [58] of 4.21 µM, a TGI [35] of 34.5 µM and a TGI [36] of 3.2 µM. It also gave a TGI [37] of 3.74 µM, a TGI [38] of 2.29 µM and a TGI [39] of 33.2 µM. The TGI [40] was 3.59 µM, the TGI [41] was 3.23 µM and the TGI [42] was 30.4 µM. The TGI [43] was 2.9 µM, the TGI [44] was 2.46 µM and the TGI [45] was 2.95 µM. For the same molecule, the TGI [46] was 1.55 µM, the TGI [47] was 5.52 µM and the TGI [48] was 2.75 µM. It also gave a TGI [49] of 17.6 µM, a TGI [50] of 3.1 µM and a TGI [51] of 28.2 µM. The TGI [52] was 3.02 µM, the TGI [53] was 2.79 µM and the TGI [54] was 3.56 µM. The TGI [55] was 4.94 µM.
With `COc1ccc(NC(=O)N(C)CC2(O)CCC(C(C)(C)C)CC2)cc1` (stereo not drawn) the TGI [1] was over 100 µM, the TGI [2] was over 100 µM and the TGI [3] was over 100 µM. It also gave a TGI [4] of over 100 µM, a TGI [5] of over 100 µM and a TGI [59] of over 100 µM. It also gave a TGI [6] of over 100 µM, a TGI [7] of over 100 µM and a TGI [8] of over 100 µM. For the same molecule, the TGI [9] was over 100 µM, the TGI [10] was 72.5 µM and the TGI [11] was over 100 µM. The TGI [12] was over 100 µM, the TGI [13] was over 100 µM and the TGI [56] was over 100 µM. The TGI [14] was over 100 µM, the TGI [15] was 74.7 µM and the TGI [57] was over 100 µM. It also gave a TGI [17] of over 100 µM, a TGI [18] of over 100 µM and a TGI [19] of 99.3 µM. It also gave a TGI [20] of over 100 µM, a TGI [21] of over 100 µM and a TGI [23] of over 100 µM. The TGI [24] was over 100 µM, the TGI [26] was over 100 µM and the TGI [27] was over 100 µM. The TGI [28] was over 100 µM, the TGI [29] was over 100 µM and the TGI [30] was 91.7 µM. The TGI [31] was over 100 µM, the TGI [32] was over 100 µM and the TGI [33] was over 100 µM. The TGI [34] was over 100 µM, the TGI [58] was over 100 µM and the TGI [35] was over 100 µM. For the same molecule, the TGI [36] was 90.4 µM, the TGI [37] was over 100 µM and the TGI [38] was over 100 µM. For the same molecule, the TGI [39] was over 100 µM, the TGI [40] was over 100 µM and the TGI [41] was over 100 µM. For the same molecule, the TGI [42] was over 100 µM, the TGI [43] was over 100 µM and the TGI [44] was over 100 µM. The TGI [45] was over 100 µM, the TGI [46] was 10.3 µM and the TGI [48] was 92.9 µM. For the same molecule, the TGI [49] was 97.3 µM, the TGI [50] was over 100 µM and the TGI [51] was over 100 µM. It also gave a TGI [52] of 81.4 µM, a TGI [53] of over 100 µM and a TGI [54] of over 100 µM. For the same molecule, the TGI [55] was over 100 µM.
